Data published in ChEMBL document CHEMBL2010659, “Synthesis of novel long wavelength cationic chlorins via stereoselective aldol-like condensation” (Bioorg Med Chem Lett, 2012).
Active and inactive are the calls of the source. The rule behind the calls is not given here.

Experiments:
Type in all cases: functional, cell-based
HeLa [1] = test: Cytotoxicity against human HeLa cells of light exposed compound up to 10 uM after 12 hrs by WST-8 assay
HeLa [2] = test: Cytotoxicity against human HeLa cells up to 10 uM after 12 hrs by WST-8 assay
HeLa [3] = test: Cytotoxicity against human HeLa cells of light exposed compound after 12 hrs by WST-8 assay

## CCC1=C(C)c2cc3[nH]c(cc4nc(c5c6[nH]c(cc1n2)c(C)c6C(=O)N(OC)C5=O)[C@@H](CCC(=O)OC)[C@@H]4C)c(C)c3/C=C/c1ccc2ccccc2[n+]1C
HeLa [1]
  Activity: Active
HeLa [2]
  Activity: inactive
HeLa [3]
  Activity: Dose-dependent effect
  IC50: 970 nM

## CCC1=C(C)c2cc3[nH]c(cc4nc(c5c6[nH]c(cc1n2)c(C)c6C(=O)C5)[C@@H](CCC(=O)OC)[C@@H]4C)c(C)c3/C=C/c1ccc2ccccc2[n+]1C
HeLa [1]
  Activity: Active
HeLa [2]
  Activity: inactive
HeLa [3]
  Activity: Dose-dependent effect
  IC50: 5360 nM

## C=Cc1c(C)c2cc3nc(c4c5[nH]c(cc6nc(cc1[nH]2)C(C)=C6CC)c(C)c5C(=O)N(OC)C4=O)[C@@H](CCC(=O)OC)[C@@H]3C
HeLa [1]
  Activity: Active
HeLa [2]
  Activity: inactive
HeLa [3]
  Activity: Dose-dependent effect
  IC50: 2710 nM

## C=Cc1c(C)c2cc3nc(c4c5[nH]c(cc6nc(cc1[nH]2)C(C)=C6CC)c(C)c5C(=O)C4)[C@@H](CCC(=O)OC)[C@@H]3C [METHYL PYROPHEOPHORBIDE A]
HeLa [1]
  Activity: Active
HeLa [2]
  Activity: inactive
HeLa [3]
  Activity: Dose-dependent effect
  IC50: 280 nM

## CCC1=C(C)c2cc3[nH]c(cc4nc(c5c6[nH]c(cc1n2)c(C)c6C(=O)N(OC)C5=O)[C@@H](CCC(=O)OC)[C@@H]4C)c(C)c3/C=C/c1cccc[n+]1C
HeLa [1]
  Activity: Active
HeLa [2]
  Activity: inactive
HeLa [3]
  Activity: Dose-dependent effect
  IC50: 110 nM

## CCC1=C(C)c2cc3[nH]c(cc4nc(c5c6[nH]c(cc1n2)c(C)c6C(=O)C5)[C@@H](CCC(=O)OC)[C@@H]4C)c(C)c3/C=C/c1cc[n+](C)cc1
HeLa [1]
  Activity: Active
HeLa [2]
  Activity: inactive
HeLa [3]
  Activity: Dose-dependent effect
  IC50: 7940 nM
